The record followed here is US20160220801A1, “TREATING LICE WITH GASEOUS COMPOUNDS IN AN AIRTIGHT SPACE” (NOVOMIC LTD., priority 2007, published 2016).

The subject of this assay is lice. The following applies: active agent delivered as gas/vapour in an airtight cap around the head; comparison among carboxylic acids.

As for `CC(=O)O` [acetic acid, Acetic acid], the “effectiveness of carboxylic acids for use in treating lice and nits” value is “most effective”.
The result for `O=CO` [formic acid, Formic acid] reads “most effective”.
